Assays:
[1] = Compound was tested for hydrolysis by acetylcholinesterase and the kinetic constant (kcat) which is a first-order rate constant was determined
acetylcholinesterase [2] = test: Compound was tested for hydrolysis by acetylcholinesterase and the kinetic constant, (Km) an apparent dissociation constant, and related to the enzyme's affinity for the substrate was reported; type: ADME
acetylcholinesterase [3] = test: in vitro
Description: Compound was tested for hydrolysis by acetylcholinesterase and the kinetic constant, (Km) an apparent dissociation constant, and related to the enzyme's affinity for the substrate was reported.

Compound | k cat [1] [s⁻¹] | Km (acetylcholinesterase [2]) [mM] | Km (acetylcholinesterase [3]; acetylcholinesterase) [mM] | Km (acetylcholinesterase [3]) [mM]
CC(=O)OCCS(C)(=O)=O | 11 | 6.2 |  | 
CC(=O)OCCCl | 3400 |  | 14 | 
CC(=O)OCCC(C)C | 3400 |  | 3.6 | 
CC(=O)OCCBr | 4500 |  | 7.5 | 
CC(=O)OCCC(C)(C)C | 66 | 5.3 |  | 
CSCCOC(C)=O | 3500 |  | 15 | 
CC(=O)OCC[N+](C)(C)[O-] | 4500 |  | 18 | 
CC(=O)OCC[S+](C)[O-] (stereo not given) | 3800 |  | 16 | 
CC(=O)OCC[Si](C)(C)C | 5700 |  | 3.5 | 
CC(=O)OCC[S+](C)C.[Br-] | 7700 |  | 0.33 | 
CCCCOC(C)=O [ACETIC ACID BUTYL ESTER] | 36 |  |  | 13
CC(=O)OCC[N+](C)(C)C [ACETYLCHOLINE] | 160 | 0.33 |  | 
CCOC(C)=O [ETHYL ACETATE] | 2900 |  |  | 

Source: ChEMBL document CHEMBL1122771, “Effects of volume and surface property in hydrolysis by acetylcholinesterase. The trimethyl site” (J Med Chem, 1984)
